Activity calls are given as the source filed them. No cut-off for these calls is given here.
How the values were obtained:
[1] = target: Proto-oncogene tyrosine-protein kinase receptor Ret (Homo sapiens, UniProt P07949); experiment: Inhibition of RET (unknown origin) at 0.1 uM
[2] = target: Epithelial discoidin domain-containing receptor 1 (Homo sapiens, UniProt Q08345); experiment: Inhibition of DDR1 (unknown origin) at 0.1 uM
[3] = Toxicity in NSG orthotopic mouse xenografted with human MDA-MB-231 cells assessed as adverse effect at 40 to 70 mg/kg, po once daily measured for 2 weeks; type: organism-based; conditions: in vivo, 336 h, dose 40-70 mg/kg
NCI-H23 = experiment: Antiproliferative activity against human NCI-H23 cells assessed as growth inhibition measured after 72 hrs by MTT assay; type: functional, cell-based
[4] = target: T1, Mitogen-activated protein kinase; ERK1/ERK2 (Homo sapiens) (UniProt P27361+P28482); experiment: Inhibition of ERK1/2 autophosphorylation in human HCT-116 cells at 0.5 to 5 uM incubated for 24 hrs by Western blot analysis; type: cell-based; conditions: dose 0.5-5 µM
HCT-116 [5] = experiment: Growth inhibition of anchorage-Independent human HCT-116 cells assessed as decrease in number of colonies incubated for 72 hrs by MTT assay; type: functional, cell-based; conditions: dose 1-10 µM
Melanoma cell line = experiment: Antiproliferative activity against human skin cancer cells assessed as growth inhibition measured after 72 hrs by MTT assay; type: functional, cell-based
MDA-MB-231 [6] = experiment: In vivo antitumor activity against human MDA-MB-231 cells xenografted in Balb/c mouse assessed as tumor volume at 40 mg/kg, po once daily measured for 16 days (reference value: 600 mm^3); type: functional; conditions: time 16 day
MDA-MB-231 [7] = experiment: Antitumor activity against human MDA-MB-231 cells xenografted in Balb/c mouse assessed as decrease in ki67 at 40 to 70 mg/kg, po once daily measured for 16 days by Immunohistochemical analysis; type: functional, organism-based; conditions: dose 40-70 mg/kg, time 16.0 day
[8] = Oral bioavailability in rat at 5 mg/kg; type: ADME, organism-based; conditions: in vivo
Homo sapiens = species: Homo sapiens; experiment: Inhibition of FLT3 D835Y mutant (unknown origin) at 0.1 uM
Focal adhesion kinase 1 = Focal adhesion kinase 1 (Homo sapiens, UniProt Q05397); experiment: Inhibition of recombinant FAK (unknown origin) by radiometric kinase assay
MDA-MB-231 [9] = experiment: Antimigratory activity in human MDA-MB-231 cells assessed as suppression of migration at 1 uM measured after 12 hrs by scratch wound healing assay; type: functional
MDA-MB-231 [10] = experiment: Disruption of focal adhesion of human MDA-MB-231 cells assessed as decrease in F-actin measured after 3 hrs by Alexa Fluor 488-conjugated Ab based fluorescence analysis; type: functional; parameters: scale not given: the % may be the effect or the level left; conditions: dose 1-10 µM, at 1 to 10 µM
[11] = Inhibition of FLT3 D835Y (unknown origin); parameters: species or system Homo sapiens
[12] = target: Tyrosine-protein kinase Fyn (Homo sapiens, UniProt P06241); experiment: Inhibition of Fyn (unknown origin) at 0.1 uM
MDA-MB-231 [13] = experiment: Induction of morphological changes in human MDA-MB-231 cells at 10 uM measured within 2 hrs by fluorescence analysis; type: functional, cell-based; conditions: time hrs <=2
Colon carcinoma cell = experiment: Antiproliferative activity against human colon cancer cells assessed as growth inhibition measured after 72 hrs by MTT assay; type: functional, cell-based
BaF3 [14] = experiment: Antiproliferative activity against mouse Ba/F3 cells harbouring FLT3 ITD F691I mutant assessed as growth inhibition measured after 72 hrs by CellTiter-Glo assay; type: functional; conditions: Mus musculus, BaF3
[15] = target: T2, Tyrosine-protein kinase Lck (Homo sapiens, UniProt P06239); experiment: Inhibition of Lck (unknown origin)
BaF3 [16] = experiment: Antiproliferative activity against mouse Ba/F3 cells assessed as growth inhibition measured after 72 hrs by CellTiter-Glo assay; type: functional; conditions: Mus musculus, BaF3
MDA-MB-231 [17] = experiment: Growth inhibition of anchorage-Independent human MDA-MB-231 cells assessed as decrease in number of colonies incubated for 72 hrs by MTT assay; type: functional, cell-based; conditions: dose 1-10 µM
HCT-116 [18] = experiment: Growth inhibition of anchorage-Independent human HCT-116 cells assessed as decrease in size incubated for 72 hrs by MTT assay; type: functional, cell-based; conditions: dose 1-10 µM
BaF3 [19] = experiment: Antiproliferative activity against mouse Ba/F3 cells harbouring FLT3 ITD mutant assessed as growth inhibition measured after 72 hrs by CellTiter-Glo assay; type: functional; conditions: Mus musculus, BaF3
Prostatic carcinoma cell = experiment: Antiproliferative activity against human prostate cancer cells assessed as growth inhibition measured after 72 hrs by MTT assay; type: functional, cell-based
BaF3 [20] = experiment: Antiproliferative activity against mouse Ba/F3 cells harbouring FLT3 ITD D835Y mutant assessed as growth inhibition measured after 72 hrs by CellTiter-Glo assay; type: functional; conditions: Mus musculus, BaF3
MDA-MB-231 [21] = experiment: Antiproliferative activity against human MDA-MB-231 cells assessed as growth inhibition measured after 72 hrs by CellTiter-Glo assay; type: functional; conditions: Homo sapiens, MDA-MB-231
[22] = target: T1, Mitogen-activated protein kinase; ERK1/ERK2 (Homo sapiens); experiment: Inhibition of ERK1/2 autophosphorylation in human MDA-MB-231 cells at 0.5 to 5 uM incubated for 24 hrs by Western blot analysis; type: cell-based; conditions: dose 0.5-5 µM
BaF3 [23] = experiment: Antiproliferative activity against mouse Ba/F3 cells harbouring FLT3 ITD F691L mutant assessed as growth inhibition measured after 72 hrs by CellTiter-Glo assay; type: functional; conditions: Mus musculus, BaF3
MDA-MB-231 [24] = experiment: Antimetastatic activity against human MDA-MB-231 cells expressing firefly luciferase xenografted NSG orthotopic mouse model assessed as reduction in luminescence intensity at liver at 70 mg/kg, po once daily measured for 2 weeks; type: functional, organism-based
MDA-MB-231 [25] = experiment: Induction of apoptosis in human MDA-MB-231 cells assessed apoptotic cell death at 10 uM incubated for 24 hrs by Annexin-V/PI analysis; type: functional, cell-based
[26] = target: T3, Casein kinase II subunit alpha (Homo sapiens, UniProt P68400); experiment: Inhibition of CK2alpha1 (unknown origin)
Target sequence in this assay (P68400 whole entry): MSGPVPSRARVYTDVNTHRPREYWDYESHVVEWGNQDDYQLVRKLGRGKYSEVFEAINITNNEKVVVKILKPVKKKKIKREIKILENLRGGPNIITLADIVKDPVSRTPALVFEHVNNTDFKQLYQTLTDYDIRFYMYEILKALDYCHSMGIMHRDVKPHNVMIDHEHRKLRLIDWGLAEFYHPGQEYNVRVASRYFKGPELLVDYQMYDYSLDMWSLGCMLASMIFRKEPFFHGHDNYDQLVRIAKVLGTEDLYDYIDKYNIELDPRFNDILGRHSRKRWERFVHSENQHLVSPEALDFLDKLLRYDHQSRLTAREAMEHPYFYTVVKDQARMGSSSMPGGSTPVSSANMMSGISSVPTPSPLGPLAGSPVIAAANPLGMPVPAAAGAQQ

HCT-116 [27] = experiment: Growth inhibition of anchorage-Independent human HCT-116 cells assessed as decrease in number of colonies at 1 uM incubated for 72 hrs by MTT assay relative to control; type: functional, cell-based
[28] = target: Tyrosine-protein kinase JAK1 (Homo sapiens, UniProt P23458); experiment: Inhibition of JAK1 (unknown origin) at 0.1 uM
[29] = target: Cyclin-dependent kinase 4 (Homo sapiens, UniProt P11802); experiment: Inhibition of CDK4 (unknown origin)
[30] = target: Proto-oncogene tyrosine-protein kinase Src (Homo sapiens, UniProt P12931); experiment: Inhibition of Src (unknown origin)
MDA-MB-231 [31] = experiment: Antimetastatic activity against human MDA-MB-231 cells expressing firefly luciferase xenografted NSG orthotopic mouse model assessed as reduction in tumor weight at 70 mg/kg, po once daily measured for 2 weeks; type: functional, organism-based
HCT-116 [32] = experiment: Induction of apoptosis in human HCT-116 cells assessed as cleaved caspase-3 at 0.1 to 10 uM incubated for 24 hrs by Western blot analysis; type: functional, cell-based; conditions: dose 0.1-10 µM
[33] = target: Proto-oncogene tyrosine-protein kinase ROS (Homo sapiens, UniProt P08922); experiment: Inhibition of ROS (unknown origin) at 0.1 uM
[34] = target: T2, Tyrosine-protein kinase Lck; experiment: Inhibition of Lck (unknown origin) at 0.1 uM
BaF3 [35] = experiment: Inhibition of FLT3-ITD/[…] mutant (unknown origin) expressed in mouse Ba/F3 cells assessed as decrease in autophosphorylation at 10 nM by Western blot analysis; type: cell-based; conditions: Homo sapiens
[36] = target: T3, Casein kinase II subunit alpha; experiment: Inhibition of CK2alpha1 (unknown origin) at 0.1 uM
Target sequence in this assay (P68400 whole entry, looked up): as the sequence (P68400 whole entry) above

T1 sequence (P27361 whole entry, looked up): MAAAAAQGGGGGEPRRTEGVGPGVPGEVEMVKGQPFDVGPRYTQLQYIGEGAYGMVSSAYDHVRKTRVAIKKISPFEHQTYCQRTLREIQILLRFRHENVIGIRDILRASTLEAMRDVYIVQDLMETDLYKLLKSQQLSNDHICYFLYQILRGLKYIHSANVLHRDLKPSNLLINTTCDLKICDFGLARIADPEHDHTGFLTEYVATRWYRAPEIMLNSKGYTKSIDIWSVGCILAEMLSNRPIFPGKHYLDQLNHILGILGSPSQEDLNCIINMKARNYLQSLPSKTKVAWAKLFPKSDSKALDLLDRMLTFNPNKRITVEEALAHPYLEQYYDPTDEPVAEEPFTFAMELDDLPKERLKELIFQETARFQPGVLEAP
T1 sequence (P28482 whole entry, looked up): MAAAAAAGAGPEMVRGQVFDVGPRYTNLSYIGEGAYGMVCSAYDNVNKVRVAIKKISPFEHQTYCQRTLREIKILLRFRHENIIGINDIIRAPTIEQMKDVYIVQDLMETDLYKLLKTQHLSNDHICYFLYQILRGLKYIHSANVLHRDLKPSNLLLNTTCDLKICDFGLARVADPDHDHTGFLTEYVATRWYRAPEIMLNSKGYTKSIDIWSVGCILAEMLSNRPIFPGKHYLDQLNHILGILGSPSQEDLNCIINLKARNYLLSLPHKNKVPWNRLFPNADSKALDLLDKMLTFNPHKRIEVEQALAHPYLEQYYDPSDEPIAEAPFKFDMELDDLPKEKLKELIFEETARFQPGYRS
Sequence of Cyclin-dependent kinase 4 (P11802 whole entry): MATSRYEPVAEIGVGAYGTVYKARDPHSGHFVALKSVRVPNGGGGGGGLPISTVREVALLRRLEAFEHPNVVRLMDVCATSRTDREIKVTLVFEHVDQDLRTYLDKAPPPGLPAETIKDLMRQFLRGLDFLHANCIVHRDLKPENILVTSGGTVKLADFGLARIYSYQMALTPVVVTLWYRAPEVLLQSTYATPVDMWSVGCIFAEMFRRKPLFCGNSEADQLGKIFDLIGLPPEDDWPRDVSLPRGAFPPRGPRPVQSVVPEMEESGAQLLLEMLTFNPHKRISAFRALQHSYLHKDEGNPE
Sequence of Focal adhesion kinase 1 (Q05397 whole entry): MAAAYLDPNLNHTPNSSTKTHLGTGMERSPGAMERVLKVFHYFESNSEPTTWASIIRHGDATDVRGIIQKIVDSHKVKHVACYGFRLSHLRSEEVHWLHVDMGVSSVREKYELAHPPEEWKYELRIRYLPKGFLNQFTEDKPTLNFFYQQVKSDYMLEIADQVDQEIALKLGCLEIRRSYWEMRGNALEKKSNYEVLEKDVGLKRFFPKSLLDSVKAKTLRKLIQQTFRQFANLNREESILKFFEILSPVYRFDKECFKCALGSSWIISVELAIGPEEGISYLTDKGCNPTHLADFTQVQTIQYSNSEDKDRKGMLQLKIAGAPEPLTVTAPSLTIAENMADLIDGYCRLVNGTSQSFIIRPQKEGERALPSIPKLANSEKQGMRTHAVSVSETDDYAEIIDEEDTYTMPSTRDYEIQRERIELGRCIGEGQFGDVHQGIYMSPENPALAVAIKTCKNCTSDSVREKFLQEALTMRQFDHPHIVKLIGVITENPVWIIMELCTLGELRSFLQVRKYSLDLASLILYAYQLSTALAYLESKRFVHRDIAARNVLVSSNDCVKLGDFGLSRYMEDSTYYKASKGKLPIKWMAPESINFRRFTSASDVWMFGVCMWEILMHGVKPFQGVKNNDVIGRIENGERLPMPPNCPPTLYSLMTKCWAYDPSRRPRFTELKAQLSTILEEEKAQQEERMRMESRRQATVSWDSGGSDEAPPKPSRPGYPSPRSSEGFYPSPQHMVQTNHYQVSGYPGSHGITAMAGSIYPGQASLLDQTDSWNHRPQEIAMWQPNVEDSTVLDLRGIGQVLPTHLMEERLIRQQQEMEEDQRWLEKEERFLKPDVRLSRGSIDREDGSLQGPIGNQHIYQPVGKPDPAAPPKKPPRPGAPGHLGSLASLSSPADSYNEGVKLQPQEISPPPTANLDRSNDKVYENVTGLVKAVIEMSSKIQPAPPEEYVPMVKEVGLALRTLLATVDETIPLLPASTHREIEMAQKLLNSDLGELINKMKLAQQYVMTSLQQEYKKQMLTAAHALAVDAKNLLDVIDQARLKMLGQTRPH
Sequence of Proto-oncogene tyrosine-protein kinase ROS (P08922 whole entry): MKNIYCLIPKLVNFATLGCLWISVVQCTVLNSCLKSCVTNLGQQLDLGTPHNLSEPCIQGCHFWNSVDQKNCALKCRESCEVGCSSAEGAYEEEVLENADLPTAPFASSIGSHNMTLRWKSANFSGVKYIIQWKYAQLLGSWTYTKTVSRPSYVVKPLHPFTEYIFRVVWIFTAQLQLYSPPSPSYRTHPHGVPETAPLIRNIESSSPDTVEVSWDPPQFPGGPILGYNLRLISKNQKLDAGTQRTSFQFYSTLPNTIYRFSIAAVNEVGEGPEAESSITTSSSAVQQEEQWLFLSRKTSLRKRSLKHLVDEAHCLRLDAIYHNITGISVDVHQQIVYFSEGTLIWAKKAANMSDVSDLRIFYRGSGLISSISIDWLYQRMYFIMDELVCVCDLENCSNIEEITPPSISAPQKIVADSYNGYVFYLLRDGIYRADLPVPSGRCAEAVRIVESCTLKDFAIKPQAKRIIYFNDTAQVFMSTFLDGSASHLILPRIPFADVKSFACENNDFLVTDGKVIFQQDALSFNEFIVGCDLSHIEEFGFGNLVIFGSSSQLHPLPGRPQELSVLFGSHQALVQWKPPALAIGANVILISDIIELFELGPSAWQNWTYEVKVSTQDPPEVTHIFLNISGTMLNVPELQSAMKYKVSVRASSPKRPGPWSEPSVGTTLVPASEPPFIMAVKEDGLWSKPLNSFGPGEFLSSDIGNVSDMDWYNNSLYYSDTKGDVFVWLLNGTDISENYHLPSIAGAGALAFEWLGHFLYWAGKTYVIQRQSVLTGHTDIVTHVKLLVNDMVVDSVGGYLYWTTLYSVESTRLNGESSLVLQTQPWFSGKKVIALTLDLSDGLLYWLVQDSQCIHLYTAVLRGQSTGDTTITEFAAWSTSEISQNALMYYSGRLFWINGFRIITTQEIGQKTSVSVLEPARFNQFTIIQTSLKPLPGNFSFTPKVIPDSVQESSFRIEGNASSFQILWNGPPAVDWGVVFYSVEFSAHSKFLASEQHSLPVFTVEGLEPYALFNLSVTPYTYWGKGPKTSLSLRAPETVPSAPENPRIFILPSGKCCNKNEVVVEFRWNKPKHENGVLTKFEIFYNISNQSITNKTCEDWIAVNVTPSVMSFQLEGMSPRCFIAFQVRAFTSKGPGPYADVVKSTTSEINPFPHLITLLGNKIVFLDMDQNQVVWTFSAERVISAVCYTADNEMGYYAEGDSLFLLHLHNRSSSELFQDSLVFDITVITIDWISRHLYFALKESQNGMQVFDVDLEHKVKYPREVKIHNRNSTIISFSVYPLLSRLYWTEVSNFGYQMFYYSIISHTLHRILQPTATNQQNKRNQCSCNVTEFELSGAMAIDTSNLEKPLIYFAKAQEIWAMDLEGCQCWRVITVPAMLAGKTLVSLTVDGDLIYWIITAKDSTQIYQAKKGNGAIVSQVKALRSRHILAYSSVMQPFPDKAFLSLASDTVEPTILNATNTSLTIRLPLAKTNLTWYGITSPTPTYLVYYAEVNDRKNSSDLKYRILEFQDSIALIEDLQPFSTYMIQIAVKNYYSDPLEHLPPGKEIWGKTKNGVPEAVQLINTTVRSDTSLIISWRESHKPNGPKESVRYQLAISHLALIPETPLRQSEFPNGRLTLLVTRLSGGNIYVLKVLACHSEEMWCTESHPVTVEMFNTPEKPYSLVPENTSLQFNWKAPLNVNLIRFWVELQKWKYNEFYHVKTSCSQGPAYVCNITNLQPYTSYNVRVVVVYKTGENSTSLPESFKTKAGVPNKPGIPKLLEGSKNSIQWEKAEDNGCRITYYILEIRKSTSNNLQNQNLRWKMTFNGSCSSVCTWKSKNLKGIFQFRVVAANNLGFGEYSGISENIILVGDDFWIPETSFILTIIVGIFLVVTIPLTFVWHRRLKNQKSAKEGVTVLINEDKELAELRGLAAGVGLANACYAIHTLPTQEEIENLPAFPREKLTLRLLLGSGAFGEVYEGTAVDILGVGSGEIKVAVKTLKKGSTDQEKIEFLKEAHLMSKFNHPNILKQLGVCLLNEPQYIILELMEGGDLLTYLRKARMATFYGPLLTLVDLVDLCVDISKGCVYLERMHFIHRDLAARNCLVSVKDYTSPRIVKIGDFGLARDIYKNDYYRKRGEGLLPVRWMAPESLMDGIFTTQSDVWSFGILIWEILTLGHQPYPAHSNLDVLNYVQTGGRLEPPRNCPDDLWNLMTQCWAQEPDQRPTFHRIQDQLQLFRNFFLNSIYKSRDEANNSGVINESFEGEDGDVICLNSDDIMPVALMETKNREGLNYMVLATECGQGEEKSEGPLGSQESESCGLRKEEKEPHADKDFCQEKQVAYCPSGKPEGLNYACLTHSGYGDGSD

SMILES: CCN1CCN(c2ccc(Nc3ncc4scc(-c5cccc(NS(C)(=O)=O)c5)c4n3)cc2)CC1
- inhibition [1]: 95.3%
- inhibition [2]: 97%
- Activity [3]: Non-Toxic
- Activity (NCI-H23): Active
- inhibition [4]: inactive
- growth inhibition (GI) (HCT-116 [5]): Active
- Activity (Melanoma cell line): Active
- Activity (MDA-MB-231 [6]): 400 mm3
- Activity (MDA-MB-231 [7]): Active
- bioavailability [8]: 37.1%
- inhibition (Homo sapiens): 98.4%
- IC50 (Focal adhesion kinase 1): 7 nM
- inhibition at 1 µM (MDA-MB-231 [9]): 50%
- Activity (MDA-MB-231 [10]): 50%
- IC50 [11]: < 0.5 nM
- inhibition [12]: 92%
- Activity (MDA-MB-231 [13]): Active
- Activity (Colon carcinoma cell): Active
- GI50 (BaF3 [14]): 114 nM
- IC50 [15]: 7.8 nM
- GI50 (BaF3 [16]): 428 nM
- growth inhibition (GI) (MDA-MB-231 [17]): Dose-Dependent Effect
- growth inhibition (GI) (HCT-116 [18]): Active
- GI50 (BaF3 [19]): 4 nM
- Activity (Prostatic carcinoma cell): Active
- GI50 (BaF3 [20]): 5.7 nM
- GI50 (MDA-MB-231 [21]): 470 nM
- inhibition [22]: inactive
- GI50 (BaF3 [23]): 60.5 nM
- Activity (MDA-MB-231 [24]): Active
- Activity (MDA-MB-231 [25]): Active
- IC50 [26]: 13.9 nM
- growth inhibition (GI) (HCT-116 [27]): Active
- inhibition [28]: 93.8%
- IC50 [29]: 8.5 nM
- IC50 [30]: 3.4 nM
- Activity (MDA-MB-231 [31]): Active
- Activity (HCT-116 [32]): Active
- inhibition [33]: 92.9%
- inhibition [34]: 93.9%
- inhibition (BaF3 [35]): 100%
- inhibition [36]: 95.5%

From ChEMBL document CHEMBL4837239, “Identification of Thieno[3,2-d]pyrimidine Derivatives as Dual Inhibitors of Focal Adhesion Kinase and FMS-like Tyrosine Kinase 3” (J Med Chem, 2021)
